From patent US20090054450A1, “COMPOSITIONS AND METHODS OF USE FOR TREATING OR PREVENTING LIPID RELATED DISORDERS” (IRONWOOD PHARMACEUTICALS, INC., priority 2007, published 2009)

Experiments:
[1] = test system: rat high fat, high cholesterol diet model; experiment: Rat High Fat, High Cholesterol Diet Model; assay type: in vivo; settings: HFHC diet rats; for HDL / LDL / VLDL: once daily perorally for seven days, serum VAP analysis, compound 13 at 3, 10, 30 mg/kg; for HDL / LDL / VLDL / blood glucose: compound 10A at 3, 10, or 30 mg/kg, compound 5A at 100 mg/kg; for blood glucose: seven days dosing
Description: Fibrate and statin derivatives, alone and in combination, are tested for effects on cholesterol and lipid profiles in a rat high fat diet model for example as described in Ghibaudi et al. (2002) Obes Res 10:956-63, Ricci and Levin (2003) Am J Physiol Regul Integr Comp Physiol 285:R610-8, and Gao et al. (2002) 936:87-90. Alternatively, animals are fed either a normal diet or a chow supplemented with added fat and/or cholesterol as described in Krause et al (1994) Pharm Res Vol 29, No. 4, Nishina (1993) J of Lipid Res vol 43. and Gajda et al. (2007) Animal Lab News. Based on the specific chows used in these reports, we fed animals a diet consisting of 40% fat, 1% cholesterol, and 0.5% cholic acid (catalog #D01061201, Research Diets, New Brunswick, N.J. 08901). After at least a week on this diet, animals (6-8/group) are dosed once daily perorally with 300 uL test compounds in PEG 400 or suitable vehicle. Groups are dosed for at least one week before whole blood samples are taken for analysis. Blood serum is analyzed using Vertical Auto Profile (VAP; Atherotech, Inc., Birmingham, Ala.) analysis similar to as described in Kulkami (2006) Clin Lab Med 26:787-802.
Similarly, when tested in this assay, Compound 5A [(E)-4-(3,5-dimethoxystyryl)phenyl 2-(4-(4-chlorobenzoyl)phenoxy)-2-methylpropanoate] was associated with decreased LDL and VLDL, no change in blood glucose, and increased HDL. Graphical depictions showing the LDL, VLDL and HDL analyses for compounds 10A and 5A are shown in FIGS. 1, 2, and 3 respectively. Compound 13 (4-(nitrooxy)butyl 2-(4-(4-chlorobenzoyl)phenoxy)-2-methylpropanoate) was also tested in this assay. FIGS. 4-6 are graphs showing that Compound 13 decreased LDL (FIG. 4) and VLDL (FIG. 5) and increased HDL (FIG. 6). Fenofibrate was also tested in this assay at 2, 6.8 and 20.5 mg/kg (FIGS. 4-6) which are equimolar equivalents (for the fenofibric acid moiety) of Compound 10A dosed at […]. Similar untested dose equivalent amounts to Compound 13 at 3, 10, and 30 mg/kg would be 2.5, 8.3, and 24.8 mg/kg of fenofibrate. In these experiments animals (n=6 per group) were fed either a normal chow (chow) or high fat high cholesterol chow (HFHC; 40% fat, 1% cholesterol, 0.5% cholic acid) diet for one week before test compound administration. Animals received either no test compound (“naïve”), vehicle only (PEG 400) or test compound (compound 10A at 3, 10, or 30 mg/kg, compound 5A at 100 mg/kg, compound 13 at 3, 10, 30 mg/kg, or fenofibrate at 2, 6.8, or 20.5 mg/kg) for seven days before whole blood samples were taken for analysis. […] Compound 8A may be useful for another contemplated use described herein however.

[2] = Pharmacokinetics in rat high fat high cholesterol diet model (LC/MS-MS); assay type: in vivo; settings: oral administration, vs compound 121 (resveratrol)
Description: Similarly, when tested in this assay, Compound 5A [(E)-4-(3,5-dimethoxystyryl)phenyl 2-(4-(4-chlorobenzoyl)phenoxy)-2-methylpropanoate] was associated with decreased LDL and VLDL, no change in blood glucose, and increased HDL. Graphical depictions showing the LDL, VLDL and HDL analyses for compounds 10A and 5A are shown in FIGS. 1, 2, and 3 respectively. Compound 13 (4-(nitrooxy)butyl 2-(4-(4-chlorobenzoyl)phenoxy)-2-methylpropanoate) was also tested in this assay. FIGS. 4-6 are graphs showing that Compound 13 decreased LDL (FIG. 4) and VLDL (FIG. 5) and increased HDL (FIG. 6). Fenofibrate was also tested in this assay at 2, 6.8 and 20.5 mg/kg (FIGS. 4-6) which are equimolar equivalents (for the fenofibric acid moiety) of Compound 10A dosed at […]. Similar untested dose equivalent amounts to Compound 13 at 3, 10, and 30 mg/kg would be 2.5, 8.3, and 24.8 mg/kg of fenofibrate. […]
(§1) Various pharmacokinetic parameters were calculated by collecting plasma samples from animals dosed with a test compound and analyzed by LC/MS-MS. […] Concentrations were determined by relative responses to an internal standard and calculated based on a standard concentration curve of the test compound. […] Oral Bioavailability (Fn) was calculated using the equation: F=(AUCoral/AUCIV)*DoseIV.Doseoral). Cmax and Tmax are determined by visual inspection of the oral concentration curve. […]

[3] = test system: ob/ob mice; experiment: Obese (ob/ob) Mouse Model, blood glucose; assay type: in vivo; settings: ob/ob mice on high fat chow, perorally once daily for three weeks, days 7, 14, 21; Compound 10A 30 and 100 mg/kg, Compound 121 43 or 1000 mg/kg, fenofibrate 68 mg/kg
Description: The increased expression of plasma lipids in ob/ob mice make them a useful model for the study of drugs designed to lower cholesterol. In these experiments animals (n=10 per group) were fed a high fat chow (HF; 60% fat,) for one week before test compound administration and continued on this diet for the duration of the experiment. Animals received either vehicle only (PEG 400), or test compound (Compound 121 (resveratrol) at 43 or 1000 mg/kg, Compound 10A at 30 or 100 mg/kg, or fenofibrate at 68 mg/kg) perorally once daily for a total of three weeks. Blood samples were collected weekly for the determination of fasting glucose levels (One touch Ultra, LifeScan Inc). Blood serum was analyzed after three weeks using Vertical Auto Profile (VAP; Atherotech, Inc., Birmingham, Ala.) analysis similar to as described in Kulkami (2006) Clin Lab Med 26:787-802. […] 43 mg/kg of compound 121 (resveratrol) and 68 mg/kg of fenofibrate are the equimolar equivalents to the amounts of resveratrol and fenofibric acid moieties in 100 mg/kg of Compound 10A. […] FIG. 8 is a pharmacokinetic profile (using the methodologies as described herein) analyzing fenofibric acid levels in blood plasma of ob/ob mice dosed with either 68 mg/kg of fenofibrate, or 30 mg/kg or 100 mg/kg of Compound 10A.

[4] = Pharmacokinetic profile in blood plasma of ob/ob mice (LC/MS-MS); assay type: in vivo, mouse
Description: The increased expression of plasma lipids in ob/ob mice make them a useful model for the study of drugs designed to lower cholesterol. In these experiments animals (n=10 per group) were fed a high fat chow (HF; 60% fat,) for one week before test compound administration and continued on this diet for the duration of the experiment. Animals received either vehicle only (PEG 400), or test compound (Compound 121 (resveratrol) at 43 or 1000 mg/kg, Compound 10A at 30 or 100 mg/kg, or fenofibrate at 68 mg/kg) perorally once daily for a total of three weeks. Blood samples were collected weekly for the determination of fasting glucose levels (One touch Ultra, LifeScan Inc). Blood serum was analyzed after three weeks using Vertical Auto Profile (VAP; Atherotech, Inc., Birmingham, Ala.) analysis similar to as described in Kulkami (2006) Clin Lab Med 26:787-802. […]
as §1

[5] = test system: ob/ob mice; settings: fenofibrate 100 mg/kg; McCarmona et al. (2005); cited from earlier work

SMILES	HDL [1]	LDL [1]	VLDL [1]	blood glucose [1]	blood glucose (fasting), change compared to day 0 [3]	further results
COc1cc(/C=C/c2ccc(OC(=O)C(C)(C)Oc3ccc(C(=O)c4ccc(Cl)cc4)cc3)cc2)cc(OC)c1 [Compound 5A, (E)-4-(3,5-dimethoxystyryl)phenyl 2-(4-(4-chlorobenzoyl)phenoxy)-2-methylpropanoate]	increased	decreased	decreased	no change		
CC(=O)Oc1cc(/C=C/c2ccc(OC(=O)C(C)(C)Oc3ccc(C(=O)c4ccc(Cl)cc4)cc3)cc2)cc(OC(C)=O)c1 [Compound 8A, (E)-5-(4-(2-(4-(4-chlorobenzoyl)phenoxy)-2-methylpropanoyloxy)styryl)-1,3-phenylene diacetate]						efficacy in rat high fat, high cholesterol diet model [1]: does not show any efficacy; melting point: 112 to 113 °C
CC(C)(Oc1ccc(C(=O)c2ccc(Cl)cc2)cc1)C(=O)Oc1ccc(/C=C/c2cc(O)cc(O)c2)cc1.Cl [Compound 10A, (E)-4-(3,5-dihydroxystyryl)phenyl 2-(4-(4-chlorobenzoyl)phenoxy)-2-methylpropanoate]	increased	dose related decreases	dose related decreases	decreased	statistically significant (when compared to day 0) decreases	resveratrol pharmacokinetic profile [2]: different resveratrol pharmacokinetic profile; fenofibric acid exposure in blood plasma ([4]; ob/ob mice, 30 mg/kg Compound 10A as compared to 68 mg/kg fenofibrate): less fenofibric acid exposure; resveratrol pharmacokinetic profile ([4]; obese mouse model, oral administration, 100 mg/kg Compound 10A vs 43 mg/kg compound 121 (resveratrol)): different resveratrol pharmacokinetic profile
CC(C)(Oc1ccc(C(=O)c2ccc(Cl)cc2)cc1)C(=O)OCCCCO[N+](=O)[O-] [Compound 13, 4-(nitrooxy)butyl 2-(4-(4-chlorobenzoyl)phenoxy)-2-methylpropanoate]	increased	decreased	decreased			
Oc1ccc(/C=C/c2cc(O)cc(O)c2)cc1 [Compound 121, (E)-5-(4-hydroxystyryl)benzene-1,3-diol]					neither Compound 121 (resveratrol; dosed at 43 or 1000 mg/kg) or fenofibrate (dosed at 68 mg/kg) resulted in statistically significant changes	
CC(C)OC(=O)C(C)(C)Oc1ccc(C(=O)c2ccc(Cl)cc2)cc1 [fenofibrate, 2-[4-(4-chlorobenzoyl)phenoxy]-2-methyl-propanoic acid, 1-methylethyl ester]					neither Compound 121 (resveratrol; dosed at 43 or 1000 mg/kg) or fenofibrate (dosed at 68 mg/kg) resulted in statistically significant changes	blood glucose in ob/ob mice [5]: shown to decrease blood glucose
